# Tested on: OVCAR-3 cells
# Assay: In vitro inhibition of Topoisomerase-I by delivery of Exatecan via the ADC (DNA-damage markers)
# Assay type: cell-based
# Conditions: 5 μg/mL, 72 h
# Method: OVCAR-3 cells were treated with 5 μg/mL TUB-040 or 5 nM free Exatecan for 72 h. Cells were stained with Live/Dead stain and for the DNA-damage markers active caspase-3, cleaved PARP and phosphorylated H2A.X (Ser-139) and analyzed by flow cytometry. Graphs show means of n=2±SEM (FIG. 9).
substance,measurement,value
TUB-040,"Induction of DNA-damage markers (active caspase-3, cleaved PARP, phosphorylated H2A.X)",induces DNA-damage markers
